Results published in patent US5405849A, “Angiotensin II receptor blocking 2,3,6 substituted quinazolinones” (American Cyanamid Company, priority 1993, dated 1995).

Tested on: angiotensin II (AII) vasopressor response
Experiment: AII challenge: antagonism of the vasopressor response of angiotensin II in conscious Okamoto-Aoki SHR
Type: in vivo, rat (Okamoto-Aoki SHR)
Details: for inhibition in vivo at 1 mg/kg / inhibition in vivo at 10 mg/kg / inhibition in vivo at 2 mg/kg / inhibition in vivo at 30 mg/kg / inhibition in vivo at 5 mg/kg / inhibition in vivo at 3 mg/kg / inhibition in vivo at 6 mg/kg: Rattus norvegicus; for inhibition in vivo at 1 mg/kg / inhibition in vivo at 10 mg/kg / inhibition in vivo at 2 mg/kg / inhibition in vivo at 30 mg/kg / inhibition in vivo at 3 mg/kg / inhibition in vivo at 6 mg/kg: iv; for inhibition in vivo at 5 mg/kg: po; for inhibition in vivo at 3 mg/kg: 3 mg/kg iv
Excerpt: Conscious Male Okamoto-Aoki SHR, 16-20 weeks old, weighing approximately 330 g are purchased from Charles River Labs (Wilmington, Mass.). Conscious rats are restrained in a supine position with elastic tape. The area at the base of the tail is locally anesthetized by subcutaneous infiltration with 2% procaine. The ventral caudal artery and vein are isolated, and a cannula made of polyethylene (PE) 10-20 tubing (fused together by heat) is passed into the lower abdominal aorta and vena cava, respectively. The cannula is secured, heparinized (1,000 I.U./ml), sealed and the wound is closed. The animals are placed in plastic restraining cages in an upright position. The cannula is attached to a Statham P23Db pressure transducer, and pulsatile blood pressure is recorded to 10-15 minutes with a Gould Brush recorder.
Angiotensin II (human sequence, Sigma Chem. Co., St. Louis, Mo.) of 0.05 and 0.1 ug/kg i.v. is injected into all rats (predosing response). Then a test compound, vehicle or a known angiotensin II antagonist is administered i.v., i.p. or orally to each set of rats. […] The vasopressor response of angiotensin II is measured for the increase in systolic blood pressure in mmHg. The percentage of antagonism or blockade of the vasopressor response of angiotensin II by a compound is calculated using the vasopressor response (increase in systolic blood pressure) of angiotensin II of each rat predosing the compound as 100%.

[1] = 1 mg/kg iv, AII .1 ug/kg, 30 min
[2] = 2 mg/kg iv, AII .05 ug/kg, 180 min
[3] = 0.5 h, 1 mg/kg iv, AII .05 ug/kg, 30 min
[4] = 0.5 h, 1 mg/kg iv, AII .1 ug/kg, 30 min
[5] = 0.75 h, 1 mg/kg iv, AII .05 ug/kg, 45 min
[6] = 0.75 h, 1 mg/kg iv, AII .1 ug/kg, 45 min
[7] = 1.5 h, 1 mg/kg iv, AII .05 ug/kg, 90 min
[8] = 1.5 h, 1 mg/kg iv, AII .1 ug/kg, 90 min
[9] = 1.5 h, 10 mg/kg iv, AII .05 ug/kg, 90 min
[10] = 2 h, 2 mg/kg iv, AII .05 ug/kg, 120 min
[11] = 2 h, 2 mg/kg iv, AII .1 ug/kg, 120 min
[12] = 2.5 h, 2 mg/kg iv, AII .05 ug/kg, 150 min
[13] = 2.5 h, 2 mg/kg iv, AII .1 ug/kg, 150 min
[14] = 3 h, 2 mg/kg iv, AII .05 ug/kg, 180 min
[15] = 3 h, 2 mg/kg iv, AII .1 ug/kg, 180 min
[16] = 0.5 h, 5 mg/kg oral, AII .05 ug/kg, 30 min
[17] = 0.5 h, 5 mg/kg oral, AII .1 ug/kg, 30 min
[18] = 1.5 h, 5 mg/kg oral, AII .05 ug/kg, 90 min
[19] = 1.5 h, 5 mg/kg oral, AII .1 ug/kg, 90 min
[20] = 2.5 h, 5 mg/kg oral, AII .05 ug/kg, 150 min
[21] = 2.5 h, 5 mg/kg oral, AII .1 ug/kg, 150 min

With `CCCCc1nc2ccc(C(C)O)cc2c(=O)n1Cc1ccc(-c2ccccc2-c2nnn[nH]2)cc1` (stereo not drawn) [Example 49, 2-Butyl-6-(1-hydroxyethyl)-3-[[2'-(1H-tetrazol-5-yl)-[1,1'-biphenyl]-4-yl]methyl]-4(3H)-quinazolinone] the “Response change (systolic BP increase to AII)” value (1 mg/kg iv, AII .05 ug/kg, 30 min) was 27 mmHg, the “Response change (systolic BP increase to AII)” value (1 mg/kg iv, AII .05 ug/kg, 45 min) was 25 mmHg and the “Response change (systolic BP increase to AII)” value (1 mg/kg iv, AII .05 ug/kg, 90 min) was 40 mmHg. For the same compound, the “Response change (systolic BP increase to AII)” value [1] was 40 mmHg, the “Response change (systolic BP increase to AII)” value (1 mg/kg iv, AII .1 ug/kg, 45 min) was 25 mmHg and the “Response change (systolic BP increase to AII)” value (1 mg/kg iv, AII .1 ug/kg, 90 min) was 40 mmHg. The “Response change (systolic BP increase to AII)” value (2 mg/kg iv, AII .05 ug/kg, 120 min) was 10 mmHg, the “Response change (systolic BP increase to AII)” value (2 mg/kg iv, AII .05 ug/kg, 150 min) was 35 mmHg and the “Response change (systolic BP increase to AII)” value [2] was 50 mmHg. The “Response change (systolic BP increase to AII)” value (2 mg/kg iv, AII .1 ug/kg, 120 min) was 35 mmHg, the “Response change (systolic BP increase to AII)” value (2 mg/kg iv, AII .1 ug/kg, 150 min) was 40 mmHg and the “Response change (systolic BP increase to AII)” value (2 mg/kg iv, AII .1 ug/kg, 180 min) was 55 mmHg. For the same compound, the “Response change (systolic BP increase to AII)” value (10 mg/kg iv, AII .05 ug/kg, 30 min) was 0 mmHg, the “Response change (systolic BP increase to AII)” value (10 mg/kg iv, AII .05 ug/kg, 90 min) was 0 mmHg and the “Response change (systolic BP increase to AII)” value (10 mg/kg iv, AII .1 ug/kg, 30 min) was 0 mmHg. The inhibition in vivo at 1 mg/kg [3] was 40%, the inhibition in vivo at 1 mg/kg [4] was 27% and the inhibition in vivo at 10 mg/kg (0.5 h, 10 mg/kg iv, AII .05 ug/kg, 30 min) was 100%. It also gave an inhibition in vivo at 10 mg/kg (0.5 h, 10 mg/kg iv, AII .1 ug/kg, 30 min) of 100%, an inhibition in vivo at 1 mg/kg [5] of 45% and an inhibition in vivo at 1 mg/kg [6] of 55%. For the same compound, the inhibition in vivo at 1 mg/kg [7] was 11%, the inhibition in vivo at 1 mg/kg [8] was 27% and the inhibition in vivo at 10 mg/kg [9] was 100%. The inhibition in vivo at 2 mg/kg [10] was 78%, the inhibition in vivo at 2 mg/kg [11] was 36% and the inhibition in vivo at 2 mg/kg [12] was 23%. The inhibition in vivo at 2 mg/kg [13] was 27%, the inhibition in vivo at 2 mg/kg [14] was 11% and the inhibition in vivo at 2 mg/kg [15] was 0%.

With `CCCCc1nc2ccccc2c(=O)n1Cc1ccc(-c2ccccc2-c2nnn[nH]2)cc1` [Example 50] the “Response change (systolic BP increase to AII)” value (30 mg/kg iv, AII .05 ug/kg, 90 min) was 30 mmHg, the inhibition in vivo at 30 mg/kg (0.5 h, 30 mg/kg iv, AII .05 ug/kg, 30 min) was 82% and the inhibition in vivo at 30 mg/kg (0.5 h, 30 mg/kg iv, AII .1 ug/kg, 30 min) was 76%. The inhibition in vivo at 30 mg/kg (1.5 h, 30 mg/kg iv, AII .05 ug/kg, 90 min) was 29%, the inhibition in vivo at 30 mg/kg (1.5 h, 30 mg/kg iv, AII .1 ug/kg, 90 min) was 52% and the inhibition in vivo at 30 mg/kg (2.5 h, 30 mg/kg iv, AII .05 ug/kg, 150 min) was 41%. For the same compound, the inhibition in vivo at 30 mg/kg (2.5 h, 30 mg/kg iv, AII .1 ug/kg, 150 min) was 48%.

Work on `CCCCc1nc2ccc(C(C)(C)O)cc2c(=O)n1Cc1ccc(-c2ccccc2-c2nnn[nH]2)cc1` [Example 51, 2-butyl-6-(1-hydroxy-1-methylethyl)-3-[[2'-(1H-tetrazol-5-yl)-[1,1'-biphenyl]-4-yl]methyl]-4(3H)-quinazolinone] yielded an inhibition in vivo at 5 mg/kg [16] of 30%, an inhibition in vivo at 5 mg/kg [17] of 26% and an inhibition in vivo at 5 mg/kg [18] of 75%. The inhibition in vivo at 5 mg/kg [19] was 55%, the inhibition in vivo at 5 mg/kg [20] was 63% and the inhibition in vivo at 5 mg/kg [21] was 46%.

`CCCCc1nc2ccc(C(O)CC)cc2c(=O)n1Cc1ccc(-c2ccccc2-c2nnn[nH]2)cc1` (stereo not drawn) [Example 52] was tested, and the “Response change (systolic BP increase to AII)” value (5 mg/kg oral, AII .05 ug/kg, 30 min) was 25 mmHg, the “Response change (systolic BP increase to AII)” value (5 mg/kg oral, AII .05 ug/kg, 150 min) was 15 mmHg and the inhibition in vivo at 5 mg/kg [16] was 52%. It also gave an inhibition in vivo at 5 mg/kg [17] of 43%, an inhibition in vivo at 5 mg/kg [18] of 66% and an inhibition in vivo at 5 mg/kg [19] of 63%. The inhibition in vivo at 5 mg/kg [20] was 71% and the inhibition in vivo at 5 mg/kg [21] was 60%.

In the case of `CCCCc1nc2ccc(CO)cc2c(=O)n1Cc1ccc(-c2ccccc2-c2nnn[nH]2)cc1` [Example 53], the “Response change (systolic BP increase to AII)” value (6 mg/kg iv, AII .025 ug/kg, 30 min) is reported as 15 mmHg, the “Response change (systolic BP increase to AII)” value (6 mg/kg iv, AII .025 ug/kg, 90 min) is reported as 10 mmHg and the inhibition in vivo at 3 mg/kg (10 min, AII .05 ug/kg) is reported as 62%. It also gave an inhibition in vivo at 3 mg/kg (10 min, AII .1 ug/kg) of 42%, an inhibition in vivo at 10 mg/kg (10 min, 10 mg/kg iv, AII .05 ug/kg) of 83% and an inhibition in vivo at 10 mg/kg (10 min, 10 mg/kg iv, AII .1 ug/kg) of 90%. It also gave an inhibition in vivo at 3 mg/kg (0.5 h, AII .025 ug/kg, 30 min) of 53%, an inhibition in vivo at 6 mg/kg (0.5 h, 6 mg/kg iv, AII .025 ug/kg, 30 min) of 50% and an inhibition in vivo at 10 mg/kg (0.5 h, 10 mg/kg iv, AII .05 ug/kg, 30 min, second 30/60/90 series) of 76%. The inhibition in vivo at 10 mg/kg (0.5 h, 10 mg/kg iv, AII .1 ug/kg, 30 min, second 30/60/90 series) was 60%, the inhibition in vivo at 3 mg/kg (1 h, AII .05 ug/kg, 60 min) was 30% and the inhibition in vivo at 3 mg/kg (1 h, AII .1 ug/kg, 60 min) was 13%. It also gave an inhibition in vivo at 10 mg/kg (1 h, 10 mg/kg iv, AII .05 ug/kg, 60 min, second 30/60/90 series) of 46%, an inhibition in vivo at 10 mg/kg (1 h, 10 mg/kg iv, AII .1 ug/kg, 60 min, second 30/60/90 series) of 44% and an inhibition in vivo at 3 mg/kg (1.5 h, AII .025 ug/kg, 90 min) of 47%. For the same compound, the inhibition in vivo at 3 mg/kg (1.5 h, AII .1 ug/kg, 90 min) was 13%, the inhibition in vivo at 6 mg/kg (1.5 h, 6 mg/kg iv, AII .1 ug/kg, 90 min) was 30% and the inhibition in vivo at 10 mg/kg [9] was 41%. For the same compound, the inhibition in vivo at 10 mg/kg (1.5 h, 10 mg/kg iv, AII .05 ug/kg, 90 min, second 30/60/90 series) was 35%, the inhibition in vivo at 10 mg/kg (1.5 h, 10 mg/kg iv, AII .1 ug/kg, 90 min) was 56% and the inhibition in vivo at 10 mg/kg (1.5 h, 10 mg/kg iv, AII .1 ug/kg, 90 min, second 30/60/90 series) was 26%.

For `CCCCc1nc2ccc(C(O)c3ccccc3)cc2c(=O)n1Cc1ccc(-c2ccccc2-c2nnn[nH]2)cc1` (stereo not drawn) [Example 54], the “Response change (systolic BP increase to AII)” value [1] was 35 mmHg, the “Response change (systolic BP increase to AII)” value [2] was 17 mmHg and the “Response change (systolic BP increase to AII)” value (5 mg/kg oral, AII .05 ug/kg, 180 min) was 25 mmHg. For the same compound, the “Response change (systolic BP increase to AII)” value (5 mg/kg oral, AII .1 ug/kg, 180 min) was 48 mmHg, the inhibition in vivo at 1 mg/kg [3] was 47% and the inhibition in vivo at 1 mg/kg [4] was 30%. The inhibition in vivo at 1 mg/kg [5] was 75%, the inhibition in vivo at 1 mg/kg [6] was 28% and the inhibition in vivo at 1 mg/kg [7] was 49%. For the same compound, the inhibition in vivo at 1 mg/kg [8] was 34%, the inhibition in vivo at 2 mg/kg [10] was 85% and the inhibition in vivo at 2 mg/kg [11] was 64%. For the same compound, the inhibition in vivo at 2 mg/kg [12] was 67%, the inhibition in vivo at 2 mg/kg [13] was 54% and the inhibition in vivo at 2 mg/kg [14] was 69%. It also gave an inhibition in vivo at 2 mg/kg [15] of 50%, an inhibition in vivo at 5 mg/kg (3 h, 5 mg/kg oral, AII .05 ug/kg, 180 min) of 55% and an inhibition in vivo at 5 mg/kg (3 h, 5 mg/kg oral, AII .1 ug/kg, 180 min) of 26%.
